In paper PMC7918049, “Juncaceae Species as Promising Sources of Phenanthrenes: Antiproliferative Compounds from Juncus maritimus Lam” (Molecules, 2021):

test system: KCR, drug-resistant subline of the human breast cancer MCF-7; assay: MTT antiproliferative assay, KCR; type: cell-based; conditions: 72 h, mean of four parallel experiments, read-out: IC50 (µM) ± SD KCR
Method: (§1) Breast cancer cell line MCF-7 (ATCC®® HTB-22) and the drug-resistant subline of the human breast cancer MCF-7 (ECACC 86012803; KCR) were purchased from LGC Promochem (Teddington, UK). Both cell lines were cultured in Eagle’s Minimal Essential Medium (EMEM, containing 4.5 g/L glucose) supplemented with a non-essential amino acid mixture, a selection of vitamins, and 10% heat-inactivated fetal bovine serum. In every third passage, 0.56 µg/mL doxorubicin was added to the medium in order to maintain the ABCB1 (P-glycoprotein) expression in KCR cells. A2780 human ovarian cancer cell line (ECACC European Collection of Authentical Cell Culture, Sigma Cat. no. 93112519) and the cisplatin-resistant human ovarian cancer cell line A2780cis (ECACC European Collection of Authentical Cell Culture, Sigma Cat. no. 93112517) were purchased from Merck KGaA (Darmstadt, Germany). The human ovarian cancer cell lines were cultured in RPMI 1640 medium supplemented with 10% heat-inactivated fetal bovine serum. The RPMI 1640 medium of the cisplatin-resistant cell line A2780 was supplemented with 1 µM cisplatin. HeLa (ATCC® CCL-2™) human cervix carcinoma, HTB-26 breast adenocarcinoma, T-47D (ATCC® HTB-133™) ductal carcinoma, and MRC-5 human embryonal lung fibroblast cell lines (ATCC® CCL-171) were purchased from LGC Promochem (Teddington, UK). The cells were cultured in Eagle’s Minimal Essential Medium (EMEM, containing 4.5 g/L glucose) supplemented with a non-essential amino acid mixture, a selection of vitamins, and 10% heat-inactivated fetal bovine serum. HTB-26 cell line was cultured in RPMI 1640 medium supplemented with 10% heat-inactivated fetal bovine serum. T-47D cells were cultured in RPMI 1640 medium supplemented with 10% heat-inactivated fetal bovine serum, 2 mM L-glutamine, 1 mM Na-pyruvate, and 100 mM Hepes. All of the cells were incubated at 37 °C, in a 5% CO2, 95% air atmosphere.
(§2) The antiproliferative effect of the compounds was determined on the human breast (MCF-7, KCR, T-47D, HTB-26), cervical (HeLa), and ovarian (A2780, A2780cis) cancer cells, and on MRC-5 (human embryonic lung fibroblast) cell line. The adherent cells were cultured in 96-well flat-bottomed microtiter plates, using EMEM supplemented with 10% heat-inactivated fetal bovine serum or RPMI 1640 supplemented with 10% heat-inactivated fetal bovine serum, respectively. The density of the cells was adjusted to 6 × 10^3 cells in 100 μL per well, the cells were seeded for 24 h at 37 °C, 5% CO2, then the medium was removed from the plates and fresh medium (100 μL per well) was added to the cells. The effects of increasing concentrations of compounds on cell proliferation were tested in 96-well flat-bottomed microtiter plates. The compounds were diluted in the appropriate medium, the dilutions of compounds were performed in separate plates and then added to the cells. The starting concentration of the compounds was 100 μM, and two-fold serial dilution was performed (concentration range: 100-0.19 μM). The culture plates were incubated at 37 °C for 72 h; at the end of the incubation period, 20 μL of MTT (thiazolyl blue tetrazolium bromide, Sigma) solution (from a stock solution of 5 mg/mL) was added to each well. After incubation at 37 °C for 4 h, 100 μL of sodium dodecyl sulfate (SDS) (Sigma) solution (10% in 0.01 M HCI) were added to each well and the plates were further incubated at 37 °C overnight. Cell growth was determined by measuring the optical density (OD) at 540/630 nm with Multiscan EX ELISA reader (Thermo Labsystems, Cheshire, WA, USA). Mean IC50 values were obtained by best fitting the dose-dependent inhibition curves in GraphPadPrism5 program (GraphPad Software version 5.00 for Windows, San Diego, CA, USA) from four parallel experiments for each cell line. Results are expressed in terms of IC50, defined as the inhibitory dose that reduces the proliferation of the cells exposed to the tested compounds by 50% [14].

Row | Compound | IC50
1 | N.N.[Cl][Pt][Cl] [cisplatin, reference compound] | 6.5 ± 0.3 µM

same assay, conditions: Homo sapiens, MCF7, 72 h, mean of four parallel experiments, read-out: IC50 (µM) ± SD KCR

Row | Compound | IC50
2 | Cc1c(O)cc2ccc3c(C)c(O)cc4c3c2c1C(O)C4 (stereo not drawn) [Compound 3, maritin C] | > 100 µM
3 | Cc1c(O)ccc2c1CCc1cc(O)cc(C=O)c1-2 [Compound 7, 2,7-dihydroxy-1-methyl-5-aldehyde-9,10-dihydrophenanthrene] | 70.6 ± 3.1 µM

test system: cisplatin-resistant human ovarian cancer cell line A2780cis; assay: MTT antiproliferative assay, A2780cis; type: cell-based; conditions: 72 h, mean of four parallel experiments, read-out: IC50 (µM) ± SD A2780cis
Method: as §1, §2

Row | Compound | IC50
4 | Cc1c(O)cc2ccc3c(C)c(O)cc4c3c2c1C(O)C4 (stereo not drawn) [Compound 3, maritin C] | 18.6 ± 0.1 µM
5 | N.N.[Cl][Pt][Cl] [cisplatin, reference compound] | 7.3 ± 0.2 µM

same assay, conditions: Homo sapiens, 72 h, mean of four parallel experiments, read-out: IC50 (µM) ± SD A2780cis

Row | Compound | IC50
6 | Cc1c(O)cc2ccc3c(C)c(O)cc4c3c2c1C(O)C4 (stereo not drawn) [Compound 3, maritin C] | < 20 µM
7 | Cc1c(O)ccc2c1CCc1cc(O)cc(C=O)c1-2 [Compound 7, 2,7-dihydroxy-1-methyl-5-aldehyde-9,10-dihydrophenanthrene] | 32.3 ± 2.3 µM

test system: MRC-5 human embryonal lung fibroblast cell line; assay: MTT antiproliferative assay, MRC-5 normal cells; type: cell-based; conditions: 72 h, MRC-5 normal fibroblasts, mean of four parallel experiments, read-out: IC50 (µM) ± SD MRC-5
Method: as §1, §2

Row | Compound | IC50
8 | N.N.[Cl][Pt][Cl] [cisplatin, reference compound] | 0.6 µM

same assay, conditions: Homo sapiens, MRC5, 72 h, MRC-5 normal fibroblasts, mean of four parallel experiments, read-out: IC50 (µM) ± SD MRC-5

Row | Compound | IC50
9 | Cc1c(O)cc2ccc3c(C)c(O)cc4c3c2c1C(O)C4 (stereo not drawn) [Compound 3, maritin C] | 15 ± 0.2 µM
10 | Cc1c(O)ccc2c1CCc1cc(O)cc(C=O)c1-2 [Compound 7, 2,7-dihydroxy-1-methyl-5-aldehyde-9,10-dihydrophenanthrene] | 71.1 ± 1.3 µM

test system: A2780 human ovarian cancer cell line; assay: MTT antiproliferative assay, A2780; type: cell-based; conditions: 72 h, A2780, mean of four parallel experiments, read-out: IC50 (µM) ± SD A2780
Method: as §1, §2

Row | Compound | IC50
11 | N.N.[Cl][Pt][Cl] [cisplatin, reference compound] | 3.6 ± 0.3 µM

same assay, conditions: Homo sapiens, 72 h, A2780, mean of four parallel experiments, read-out: IC50 (µM) ± SD A2780

Row | Compound | IC50
12 | Cc1c(O)cc2ccc3c(C)c(O)cc4c3c2c1C(O)C4 (stereo not drawn) [Compound 3, maritin C] | 23.7 ± 0.1 µM
13 | Cc1c(O)ccc2c1CCc1cc(O)cc(C=O)c1-2 [Compound 7, 2,7-dihydroxy-1-methyl-5-aldehyde-9,10-dihydrophenanthrene] | 30 ± 3.6 µM

test system: HTB-26 breast adenocarcinoma cells; assay: MTT antiproliferative assay, HTB-26; type: cell-based, human; conditions: 72 h, HTB-26, mean of four parallel experiments, read-out: IC50 (µM) ± SD HTB-26
Method: as §1, §2

Row | Compound | IC50
14 | N.N.[Cl][Pt][Cl] [cisplatin, reference compound] | 20.1 ± 2.3 µM

same assay, conditions: Homo sapiens, HTB26, 72 h, HTB-26, mean of four parallel experiments, read-out: IC50 (µM) ± SD HTB-26

Row | Compound | IC50
15 | Cc1c(O)cc2ccc3c(C)c(O)cc4c3c2c1C(O)C4 (stereo not drawn) [Compound 3, maritin C] | 35.9 ± 1.5 µM
16 | Cc1c(O)ccc2c1CCc1cc(O)cc(C=O)c1-2 [Compound 7, 2,7-dihydroxy-1-methyl-5-aldehyde-9,10-dihydrophenanthrene] | 85.3 ± 4.5 µM

test system: HeLa human cervix carcinoma cells; assay: MTT antiproliferative assay, HeLa; type: cell-based; conditions: 72 h, mean of four parallel experiments, read-out: IC50 (µM) ± SD HeLa
Method: as §1, §2

Row | Compound | IC50
17 | N.N.[Cl][Pt][Cl] [cisplatin, reference compound] | 2.3 ± 0.1 µM

same assay, conditions: Homo sapiens, 72 h, mean of four parallel experiments, read-out: IC50 (µM) ± SD HeLa

Row | Compound | IC50
18 | Cc1c(O)cc2ccc3c(C)c(O)cc4c3c2c1C(O)C4 (stereo not drawn) [Compound 3, maritin C] | 43.2 ± 0.7 µM
19 | Cc1c(O)ccc2c1CCc1cc(O)cc(C=O)c1-2 [Compound 7, 2,7-dihydroxy-1-methyl-5-aldehyde-9,10-dihydrophenanthrene] | 24.7 ± 0.5 µM

test system: Breast cancer cell line MCF-7; assay: MTT antiproliferative assay, MCF-7; type: cell-based, human; conditions: 72 h, MCF-7, mean of four parallel experiments, read-out: IC50 (µM) ± SD MCF-7
Method: as §1, §2

Row | Compound | IC50
20 | N.N.[Cl][Pt][Cl] [cisplatin, reference compound] | 0.9 µM

same assay, conditions: Homo sapiens, MCF7, 72 h, MCF-7, mean of four parallel experiments, read-out: IC50 (µM) ± SD MCF-7

Row | IC50 | Compound
21 | 38 ± 2 µM | Cc1c(O)ccc2c1CCc1cc(O)cc(C=O)c1-2 [Compound 7, 2,7-dihydroxy-1-methyl-5-aldehyde-9,10-dihydrophenanthrene]

test system: T-47D ductal carcinoma cells; assay: MTT antiproliferative assay, T-47D; type: cell-based, human; conditions: 72 h, mean of four parallel experiments, read-out: IC50 (µM) ± SD T-47D
Method: as §1, §2

Row | Compound | IC50
22 | N.N.[Cl][Pt][Cl] [cisplatin, reference compound] | 5.9 ± 0.1 µM

same assay, conditions: Homo sapiens, T47D, 72 h, mean of four parallel experiments, read-out: IC50 (µM) ± SD T-47D

Row | Compound | IC50
23 | Cc1c(O)cc2ccc3c(C)c(O)cc4c3c2c1C(O)C4 (stereo not drawn) [Compound 3, maritin C] | 17 ± 0.6 µM
24 | Cc1c(O)ccc2c1CCc1cc(O)cc(C=O)c1-2 [Compound 7, 2,7-dihydroxy-1-methyl-5-aldehyde-9,10-dihydrophenanthrene] | 26.6 ± 1.1 µM
